Data taken from PubChem BioAssay AID192 (DTP/NCI, 2004).
Values joined by “and” are separate entries in the source; they are usually repeats but may differ in a detail not shown here. Equal values may be shown once. Toxic doses and inconclusive results are not listed. Square brackets hold non-standard residues; d marks the D form. Peptide text beside a SMILES is read from it. ξ: configuration not given here. ξV = CC(C)C(N)C(=O)O

Test system: BDF1 mice, B16 melanoma ip, median survival T/C
Assay: NCI In Vivo Anticancer Drug Screen. Data for tumor model B16 Melanoma (intraperitoneal) in B6D2F1 (BDF1) mice
Settings: endpoint: median survival time, higher = longer survival
Method in brief: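 The ratio T/C compares compound-treated mice with vehicle-treated controls, using survival or tumor size as the endpoint in a transplantable tumor model.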

[1] = dose: 25.0 mg/kg/injection, schedule: Q01DX009 (ip), vehicle: saline with Tween-80
[2] = dose: 100.0 mg/kg/injection, schedule: Q01DX009 (ip), vehicle: saline with Tween-80
[3] = dose: 200.0 mg/kg/injection, schedule: Q01DX009 (ip), vehicle: saline with Tween-80
[4] = dose: 10.0 mg/kg/injection, schedule: Q01DX009 (ip), vehicle: saline
[5] = dose: 100.0 mg/kg/injection, schedule: Q01DX009 (ip), vehicle: Klucel (hydroxypropylcellulose) (HPC)

COC(=O)c1[nH]cnc1/N=N/N(C)C
T/C (dose: 3.75 mg/kg/injection, schedule: Q01DX009 (ip), vehicle: saline): 121 % of control
T/C (dose: 15.0 mg/kg/injection, schedule: Q01DX009 (ip), vehicle: saline): 121 % of control

O=c1[nH]c(=O)n(C2CC(O)C(CO)O2)cc1F (configuration not stated)
T/C (dose: 5.0 mg/kg/injection, schedule: Q01DX009 (ip), vehicle: saline): 92 % of control
T/C [1]: 173 % of control
T/C [2]: 183 % of control
T/C [3]: 86 % of control

C=C(C)C12OC3(c4ccccc4)OC1C1C4OC4(CO)C(O)C4(O)C(=O)C(C)=CC4C1(O3)C(C)C2OC(=O)/C=C/C=C/c1ccccc1 (configuration not stated)
T/C (dose: 6.3 micrograms/kg/injection, schedule: Q01DX009 (ip), vehicle: saline with Tween-80): 107 % of control
T/C (dose: 12.5 micrograms/kg/injection, schedule: Q01DX009 (ip), vehicle: saline with Tween-80): 96 % of control
T/C (dose: 25.0 micrograms/kg/injection, schedule: Q01DX009 (ip), vehicle: alcohol): 90 % of control
T/C (dose: 25.0 micrograms/kg/injection, schedule: Q01DX009 (ip), vehicle: saline with Tween-80): 96 % of control
T/C (dose: 50.0 micrograms/kg/injection, schedule: Q01DX009 (ip), vehicle: alcohol): 91 % of control
T/C (dose: 50.0 micrograms/kg/injection, schedule: Q01DX009 (ip), vehicle: saline with Tween-80): 96 % of control
T/C (dose: 100.0 micrograms/kg/injection, schedule: Q01DX009 (ip), vehicle: alcohol): 88 % of control
T/C (dose: 100.0 micrograms/kg/injection, schedule: Q01DX009 (ip), vehicle: saline with Tween-80): 96 % of control

O=C1C(Cl)=C(N2CC2)C(=O)C(Cl)=C1N1CC1
T/C (dose: 0.62 mg/kg/injection, schedule: Q01DX009 (ip), vehicle: Klucel (hydroxypropylcellulose) (HPC)): 105 % of control
T/C (dose: 1.25 mg/kg/injection, schedule: Q01DX009 (ip), vehicle: Klucel (hydroxypropylcellulose) (HPC)): 105 % of control
T/C (dose: 2.5 mg/kg/injection, schedule: Q01DX009 (ip), vehicle: Klucel (hydroxypropylcellulose) (HPC)): 114 % of control
T/C (dose: 2.5 mg/kg/injection, schedule: Q01DX009 (ip), vehicle: saline): 115 % of control
T/C (dose: 5.0 mg/kg/injection, schedule: Q01DX009 (ip), vehicle: Klucel (hydroxypropylcellulose) (HPC)): 123 % of control
T/C (dose: 10.0 mg/kg/injection, schedule: Q01DX009 (ip), vehicle: Klucel (hydroxypropylcellulose) (HPC)): 124 % of control
T/C (dose: 20.0 mg/kg/injection, schedule: Q01DX009 (ip), vehicle: Klucel (hydroxypropylcellulose) (HPC)): 124 % of control

O=C(O)C(O)C(O)C(O)C(O)C(=O)O (configuration not stated)
T/C (dose: 300.0 mg/kg/injection, schedule: Q01DX009 (ip), vehicle: Klucel (hydroxypropylcellulose) (HPC)): 100 % of control
T/C (dose: 600.0 mg/kg/injection, schedule: Q01DX009 (ip), vehicle: Klucel (hydroxypropylcellulose) (HPC)): 93 % of control
T/C (dose: 900.0 mg/kg/injection, schedule: Q01DX009 (ip), vehicle: Klucel (hydroxypropylcellulose) (HPC)): 91 % of control

O=CC(NC(=O)N(CCCl)N=O)C(O)C(O)C(O)CO (configuration not stated)
T/C (dose: 1.3 mg/kg/injection, schedule: Q01DX009 (ip), vehicle: saline): 153 % of control
T/C (dose: 3.0 mg/kg/injection, schedule: Q01DX009 (ip), vehicle: saline): 101 % of control and 201 % of control
T/C (dose: 4.0 mg/kg/injection, schedule: Q01DX009 (ip), vehicle: saline): 198 % of control
T/C (dose: 4.5 mg/kg/injection, schedule: Q01DX009 (ip), vehicle: saline): 109 % of control and 201 % of control
T/C (dose: 6.25 mg/kg/injection, schedule: Q01DX001 (ip), vehicle: saline): 154 % of control
T/C (dose: 6.7 mg/kg/injection, schedule: Q01DX009 (ip), vehicle: saline): 287 % of control
T/C (dose: 7.5 mg/kg/injection, schedule: Q01DX001 (ip), vehicle: saline with Tween-80): 184 % of control
T/C (dose: 8.0 mg/kg/injection, schedule: Q01DX009 (ip), vehicle: saline): 91 % of control
T/C [4]: 159 % of control
T/C (dose: 12.5 mg/kg/injection, schedule: Q01DX001 (ip), vehicle: saline): 191 % of control
T/C (dose: 13.0 mg/kg/injection, schedule: Q01DX001 (ip), vehicle: saline): 201 % of control
T/C (dose: 15.0 mg/kg/injection, schedule: Q01DX001 (ip), vehicle: saline with Tween-80): 284 % of control
T/C (dose: 20.0 mg/kg/injection, schedule: Q01DX001 (ip), vehicle: saline): 163 % of control and 259 % of control
T/C (dose: 25.0 mg/kg/injection, schedule: Q01DX001 (ip), vehicle: saline): 277 % of control
T/C (dose: 30.0 mg/kg/injection, schedule: Q01DX001 (ip), vehicle: saline with Tween-80): 285 % of control
T/C (dose: 30.0 mg/kg/injection, schedule: Q01DX001 (ip), vehicle: saline): 114 % of control and 287 % of control
T/C (dose: 67.0 mg/kg/injection, schedule: Q01DX001 (ip), vehicle: saline): 287 % of control

C/C=C1/C[C@@H](C)[C@@](C)(O)C(=O)OCC2=CC[N+]3([O-])CC[C@@H](OC1=O)[C@@H]23 (some centres not stated)
T/C [4]: 102 % of control
T/C (dose: 20.0 mg/kg/injection, schedule: Q01DX009 (ip), vehicle: saline): 106 % of control
T/C (dose: 40.0 mg/kg/injection, schedule: Q01DX009 (ip), vehicle: saline): 113 % of control
T/C (dose: 80.0 mg/kg/injection, schedule: Q01DX009 (ip), vehicle: saline): 102 % of control

Cc1ccc(C)c(CCN)c1
T/C (dose: 12.5 mg/kg/injection, schedule: Q01DX009 (ip), vehicle: saline with Tween-80): 104 % of control
T/C [1]: 97 % of control

CS(=O)(=O)OCC(=O)NCC(O)CNC(=O)COS(C)(=O)=O
T/C (dose: 50.0 mg/kg/injection, schedule: Q01DX009 (ip), vehicle: saline with Tween-80): 109 % of control
T/C [2]: 104 % of control
T/C [3]: 115 % of control

CC1OC(OCc2ccc(-c3ccccc3)cc2)CC(N)C1O (configuration not stated)
T/C (dose: 1.56 mg/kg/injection, schedule: Q01DX009 (ip), vehicle: water): 105 % of control
T/C (dose: 3.13 mg/kg/injection, schedule: Q01DX009 (ip), vehicle: water): 95 % of control
T/C (dose: 6.25 mg/kg/injection, schedule: Q01DX009 (ip), vehicle: water): 99 % of control
T/C (dose: 12.5 mg/kg/injection, schedule: Q01DX009 (ip), vehicle: water): 104 % of control
T/C (dose: 25.0 mg/kg/injection, schedule: Q01DX009 (ip), vehicle: water): 87 % of control

CC(C)C(NC(=O)CNC(=O)CN)C(=O)O (stereo not drawn) (H-Gly-Gly-[ξV]-OH)
T/C (dose: 100.0 mg/kg/injection, schedule: Q01DX009 (ip), vehicle: saline): 95 % of control
T/C (dose: 100.0 mg/kg/injection, schedule: Q04DX003 (ip), vehicle: saline): 100 % of control
T/C (dose: 200.0 mg/kg/injection, schedule: Q01DX009 (ip), vehicle: saline): 97 % of control
T/C (dose: 200.0 mg/kg/injection, schedule: Q04DX003 (ip), vehicle: saline): 97 % of control
T/C (dose: 400.0 mg/kg/injection, schedule: Q01DX009 (ip), vehicle: saline): 95 % of control
T/C (dose: 400.0 mg/kg/injection, schedule: Q04DX003 (ip), vehicle: saline): 95 % of control

CCCCCCCCCCCCCCCC(=O)N(CCC#N)C(C)(C)CCC(C)(C)N(CCC#N)C(=O)CCCCCCCCCCCCCCC
T/C (dose: 25.0 mg/kg/injection, schedule: Q01DX009 (ip), vehicle: Klucel (hydroxypropylcellulose) (HPC)): 90 % of control
T/C (dose: 50.0 mg/kg/injection, schedule: Q01DX009 (ip), vehicle: Klucel (hydroxypropylcellulose) (HPC)): 98 % of control
T/C [5]: 91 % of control

O[C@H](c1cc(C(F)(F)F)nc2c(C(F)(F)F)cccc12)[C@@H]1CCCCN1
T/C (dose: 0.78 mg/kg/injection, schedule: Q01DX009 (ip), vehicle: Klucel (hydroxypropylcellulose) (HPC)): 97 % of control
T/C (dose: 1.56 mg/kg/injection, schedule: Q01DX009 (ip), vehicle: Klucel (hydroxypropylcellulose) (HPC)): 104 % of control
T/C (dose: 3.12 mg/kg/injection, schedule: Q01DX009 (ip), vehicle: Klucel (hydroxypropylcellulose) (HPC)): 113 % of control
T/C (dose: 4.5 mg/kg/injection, schedule: Q04DX003 (ip), vehicle: Klucel (hydroxypropylcellulose) (HPC)): 113 % of control
T/C (dose: 6.25 mg/kg/injection, schedule: Q01DX009 (ip), vehicle: Klucel (hydroxypropylcellulose) (HPC)): 90 % of control
T/C (dose: 9.0 mg/kg/injection, schedule: Q04DX003 (ip), vehicle: Klucel (hydroxypropylcellulose) (HPC)): 100 % of control

Cc1ccc(N=Nc2c(O)ccc3n[nH]nc23)cc1
T/C [5]: 96 % of control

CN(C)S(=O)(=O)Nc1cc(Cl)c(NS(=O)(=O)N(C)C)cc1Cl
T/C [5]: 92 % of control
T/C (dose: 200.0 mg/kg/injection, schedule: Q01DX009 (ip), vehicle: Klucel (hydroxypropylcellulose) (HPC)): 100 % of control
T/C (dose: 400.0 mg/kg/injection, schedule: Q01DX009 (ip), vehicle: Klucel (hydroxypropylcellulose) (HPC)): 89 % of control

CCCCOCCC1CCNCC1
T/C (dose: 12.5 mg/kg/injection, schedule: Q01DX009 (ip), vehicle: saline): 116 % of control
T/C (dose: 25.0 mg/kg/injection, schedule: Q01DX009 (ip), vehicle: saline): 106 % of control
T/C (dose: 50.0 mg/kg/injection, schedule: Q01DX009 (ip), vehicle: saline): 110 % of control
